Measurements published in paper PMC3608514 (Advances in enzyme regulation, 2009).

What was measured:
DGK-θ [1] = target: T1, DGK-θ (Homo sapiens, UniProt P52824)
T1 sequence (P52824 1-942): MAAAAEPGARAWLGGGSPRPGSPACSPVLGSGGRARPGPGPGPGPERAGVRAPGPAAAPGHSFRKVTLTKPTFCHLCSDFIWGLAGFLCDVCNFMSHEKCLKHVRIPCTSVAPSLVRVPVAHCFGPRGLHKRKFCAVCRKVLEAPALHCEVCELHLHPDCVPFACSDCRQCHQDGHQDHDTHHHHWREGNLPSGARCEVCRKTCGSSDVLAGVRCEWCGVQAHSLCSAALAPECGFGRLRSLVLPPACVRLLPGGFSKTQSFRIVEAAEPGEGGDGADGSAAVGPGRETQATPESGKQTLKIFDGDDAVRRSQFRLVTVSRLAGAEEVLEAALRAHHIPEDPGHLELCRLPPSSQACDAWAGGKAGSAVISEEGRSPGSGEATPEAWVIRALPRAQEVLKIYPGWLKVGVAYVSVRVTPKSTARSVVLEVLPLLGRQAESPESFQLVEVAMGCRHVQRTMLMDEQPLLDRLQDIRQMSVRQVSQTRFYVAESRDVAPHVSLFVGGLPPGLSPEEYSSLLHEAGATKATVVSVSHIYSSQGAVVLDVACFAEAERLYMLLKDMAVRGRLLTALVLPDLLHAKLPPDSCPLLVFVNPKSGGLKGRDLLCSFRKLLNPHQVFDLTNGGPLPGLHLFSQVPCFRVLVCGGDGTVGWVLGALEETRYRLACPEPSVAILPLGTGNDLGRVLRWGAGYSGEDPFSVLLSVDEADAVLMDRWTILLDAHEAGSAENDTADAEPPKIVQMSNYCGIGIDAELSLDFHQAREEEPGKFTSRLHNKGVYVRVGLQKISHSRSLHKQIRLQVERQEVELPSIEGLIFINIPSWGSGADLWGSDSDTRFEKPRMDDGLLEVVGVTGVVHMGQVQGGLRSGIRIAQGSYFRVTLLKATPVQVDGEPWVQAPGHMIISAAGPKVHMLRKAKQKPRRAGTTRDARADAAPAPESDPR

DGK-θ [2] = target: T1, DGK-θ; experiment: DGK activity assay; assay type: biochemical

Row | Compound | DGK activity assay in OG mixed micelles with cytosol over-expressing DGKθ; dose (DGK-θ [1]) [mM] | Ki (DGK-θ [2]) [µM]
1 | O=P(O)(O)OP(=O)(O)O [NaPPi, sodium pyrophosphate] | 1 to 2 | 
2 | COc1ccc2c(c1)CC[C@@H]1[C@@H]2CC[C@]2(C)[C@@H](NCCCCCCN3C(=O)C=CC3=O)CC[C@@H]12 [U73122] |  | ~20
